Columns and labels:
Assay type in all cases: functional
Rattus norvegicus [1] = assay: Amount of sodium ions excreted during 18 hours after single administration of 5 mg/kg of the test agent (protocol A-1) on 6 rats
Rattus norvegicus [2] = assay: Amount of sodium ions excreted during 18 hours after single administration of 5 mg/kg of the test agent (protocol A-2) on 11 rats
Rattus norvegicus [3] = assay: Amount of sodium ions excreted during 4 hr after oral administration of 5 mg/kg of the test agent (protocol B) on 5 male and female rats
Rattus norvegicus [4] = assay: Amount of potassium ions excreted during 18 hours after single administration of 5 mg/kg of the test agent (protocol A-1) on 6 rats
Rattus norvegicus [5] = assay: Total volume of urine excreted during 18 hours after single administration of 5 mg/kg of the test agent (protocol A-1) on 6 rats
Rattus norvegicus [6] = assay: Total volume of urine excreted during 18 hours after single administration of 5 mg/kg of the test agent (protocol A-2) on 11 rats
[7] = Ratio of amount of Na+ excreted to amount of K+ excreted in urine of rat of protocol A-1 test
Rattus norvegicus [8] = assay: Total volume of urine excreted during 4 hr after oral administration of 5 mg/kg of the test agent (protocol B) on 5 male and female rats
[9] = Ratio of amount of Na+ excreted to amount of K+ excreted in urine of rat of protocol A-2 test
[10] = Ratio of amount of Na+ excreted to amount of K+ excreted in urine of water-loaded rats
Rattus norvegicus [11] = assay: Amount of potassium ions excreted during 4 hr after oral administration of 5 mg/kg of the test agent (protocol B) on 5 male and female rats
Rattus norvegicus [12] = assay: Amount of potassium ions excreted during 18 hours after single administration of 5 mg/kg of the test agent (protocol A-2) on 11 rats
Rattus norvegicus [13] = assay: Total volume of urine excreted during 18 hours after single administration of 5 mg/kg of the test agent (protocol A-2) on 6 rats
Rattus norvegicus [14] = assay: Amount of potassium ions excreted during 18 hours after single administration of 5 mg/kg of the test agent (protocol A-2) on 6 rats
Rattus norvegicus [15] = assay: Amount of sodium ions excreted during 18 hours after single administration of 5 mg/kg of the test agent (protocol A-2) on 6 rats

SMILES | Urine Na+ (Rattus norvegicus [1]) [m equiv] | Urine Na+ (Rattus norvegicus [2]) [m equiv] | Urine Na+ (Rattus norvegicus [3]) [m equiv] | Urine K+ (Rattus norvegicus [4]) [m equiv] | Urine (Rattus norvegicus [5]) [mL] | Urine (Rattus norvegicus [6]) [mL] | Ratio [7] | Urine (Rattus norvegicus [8]) [mL] | Ratio [9] | Ratio [10] | Urine K+ (Rattus norvegicus [11]) [m equiv] | Urine K+ (Rattus norvegicus [12]) [m equiv] | Urine (Rattus norvegicus [13]) [mL] | Urine K+ (Rattus norvegicus [14]) [m equiv] | Urine Na+ (Rattus norvegicus [15]) [m equiv]
NS(=O)(=O)c1cc(C(=O)NN2Cc3ccccc3C2C(=O)O)ccc1Cl (stereo not drawn) | 1.59 | 2.199 | 0.109 | 1.569 | 9.36 | 9.36 | 0.984 | 87.1 | 1.0809 | 0.855 | 0.1305 | 2.075 | – | – | –
NS(=O)(=O)c1cc(C(=O)NN2Cc3ccccc3C2CO)ccc1Cl (stereo not drawn) | 1.622 | 1.414 | 0.2629 | 1.486 | 11.17 | 11.45 | 1.084 | 106 | 0.943 | 1.638 | 0.1657 | 1.512 | – | – | –
CC1Cc2ccccc2N1NC(=O)c1ccc(Cl)c(S(N)(=O)=O)c1 (stereo not drawn) [INDAPAMIDE] | 2.563 | – | 0.705 | 2.198 | 12.83 | – | 1.143 | 130.6 | 1.0526 | 2.738 | 0.2686 | – | 16.67 | 2.78 | 2.947
CC1c2ccccc2CN1NC(=O)c1ccc(Cl)c(S(N)(=O)=O)c1 (stereo not drawn) [ZIDAPAMIDE] | 2.193 | – | 0.6927 | 1.976 | 11.67 | – | 1.128 | 127 | 1.2204 | 3.11 | 0.2398 | – | 16.17 | 2.56 | 3.058
